Measured values as given in patent US11098017B2, “Compounds for treating disorders associated with abnormal steroidogenesis” (The General Hospital Corporation, priority 2017, dated 2021).
Like-named read-outs stand apart in the source and are kept apart here.

What was measured:
11β-hydroxylase [1] = biological target: T1, 11β-hydroxylase (Homo sapiens, UniProt P15538); details: previously reported work; cited from earlier work
T1 sequence (P15538 25-503): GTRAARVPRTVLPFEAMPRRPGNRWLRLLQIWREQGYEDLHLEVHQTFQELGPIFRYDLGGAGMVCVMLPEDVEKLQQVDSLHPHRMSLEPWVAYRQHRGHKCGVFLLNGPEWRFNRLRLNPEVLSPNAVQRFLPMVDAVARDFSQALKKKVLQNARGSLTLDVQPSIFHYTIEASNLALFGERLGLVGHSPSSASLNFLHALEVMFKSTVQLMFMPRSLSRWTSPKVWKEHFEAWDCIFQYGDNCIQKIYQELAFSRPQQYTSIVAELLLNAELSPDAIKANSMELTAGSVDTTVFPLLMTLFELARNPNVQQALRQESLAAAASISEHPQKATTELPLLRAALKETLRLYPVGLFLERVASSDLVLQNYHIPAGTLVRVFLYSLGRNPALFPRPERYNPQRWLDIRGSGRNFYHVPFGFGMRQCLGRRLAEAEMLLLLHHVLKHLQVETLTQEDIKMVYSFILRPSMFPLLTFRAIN

Sprague-Dawley rats [2] = experiment: Loss of righting reflexes (LORR) assay, sedative-hypnotic activity; details: for ED50: Rattus norvegicus, iv, read-out: ED50 for loss of righting reflexes; for dose producing loss of righting reflexes in all rats: IV
Method: Briefly, the desired dose of drug in dimethyl sulfoxide vehicle (0.1-0.3 mL) was rapidly (<5 s) injected through a 24-gauge intravenous catheter placed in a tail vein. This was followed by a 0.5-mL normal saline flush. Immediately after injection, rats were turned supine. […] The duration of LORR was defined as the time from drug injection until the animal spontaneously righted itself onto all four legs.

α1β3γ2L GABAA receptor = biological target: T2, α1β3γ2L GABAA receptor (Homo sapiens, UniProt P14867+P28472); experiment: GABAA receptor electrophysiology, potentiation of EC5 GABA-evoked currents in Xenopus oocytes; format: cell-based; details: for maximum peak current at high drug concentrations, % of that produced by 1 mM GABA: Hill fit, EC5 GABA + drug
T2 construct: expressed in transfected cells; host or cells: Xenopus oocytes injected with mRNA
T2 sequence (P14867 28-456): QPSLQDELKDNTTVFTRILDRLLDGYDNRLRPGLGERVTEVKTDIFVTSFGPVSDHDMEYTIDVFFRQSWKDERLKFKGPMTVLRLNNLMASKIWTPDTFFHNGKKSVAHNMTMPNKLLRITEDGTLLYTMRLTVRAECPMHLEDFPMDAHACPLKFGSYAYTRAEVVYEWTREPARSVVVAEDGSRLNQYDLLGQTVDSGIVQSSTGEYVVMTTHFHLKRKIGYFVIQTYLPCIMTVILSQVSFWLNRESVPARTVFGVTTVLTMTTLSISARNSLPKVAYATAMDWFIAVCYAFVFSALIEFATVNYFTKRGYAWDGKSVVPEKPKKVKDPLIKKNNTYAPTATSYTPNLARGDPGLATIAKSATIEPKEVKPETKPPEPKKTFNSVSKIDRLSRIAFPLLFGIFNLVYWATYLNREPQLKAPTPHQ
T2 sequence (P28472 26-473): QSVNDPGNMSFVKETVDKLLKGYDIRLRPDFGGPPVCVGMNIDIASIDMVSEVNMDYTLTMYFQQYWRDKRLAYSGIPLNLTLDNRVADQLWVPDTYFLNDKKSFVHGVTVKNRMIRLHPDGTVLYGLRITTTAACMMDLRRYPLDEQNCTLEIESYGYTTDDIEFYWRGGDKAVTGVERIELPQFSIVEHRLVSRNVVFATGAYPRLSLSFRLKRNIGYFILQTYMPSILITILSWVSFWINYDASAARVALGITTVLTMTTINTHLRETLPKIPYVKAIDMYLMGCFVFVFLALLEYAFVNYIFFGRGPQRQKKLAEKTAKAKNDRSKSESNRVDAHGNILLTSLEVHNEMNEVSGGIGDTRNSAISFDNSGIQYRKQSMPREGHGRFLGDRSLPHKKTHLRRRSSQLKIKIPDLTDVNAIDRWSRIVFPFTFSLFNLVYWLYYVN
T2 sequence (P18507 40-475 partner): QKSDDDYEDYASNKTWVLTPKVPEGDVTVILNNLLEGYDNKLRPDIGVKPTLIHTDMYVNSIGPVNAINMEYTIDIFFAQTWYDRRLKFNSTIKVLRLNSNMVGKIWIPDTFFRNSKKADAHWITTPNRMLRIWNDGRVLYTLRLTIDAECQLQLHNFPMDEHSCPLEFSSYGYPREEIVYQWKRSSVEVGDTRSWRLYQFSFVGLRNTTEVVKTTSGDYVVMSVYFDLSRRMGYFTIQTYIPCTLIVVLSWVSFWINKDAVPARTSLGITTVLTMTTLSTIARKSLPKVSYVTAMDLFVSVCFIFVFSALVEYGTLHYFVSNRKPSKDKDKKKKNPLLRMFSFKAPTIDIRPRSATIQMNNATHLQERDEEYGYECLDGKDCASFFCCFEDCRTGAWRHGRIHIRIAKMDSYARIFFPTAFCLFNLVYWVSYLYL
Method: Oocytes were then incubated in ND96 buffer (96 mM NaCl, 2 mM KCl, 1.8 mM CaCl2, 1 mM MgCl2, 5 mM HEPES, pH=7.4) containing 0.05 mg/mL of gentamicin for 18 to 48 hours at 18° C. before electrophysiological study. […] For each oocyte, a GABA concentration-peak current response curve was generated to define the GABA concentration that elicits 5% of the current evoked by 1 mM GABA (i.e., EC5 GABA). The effect of drug (etomidate or dimethoxy-etomidate) was then defined in that oocyte by perfusing it with EC5 GABA alone for 15-20 s followed immediately by EC5 GABA+drug at the desired concentration for 20-60 s. The resulting current response was then recorded. The peak current response recorded in the presence of EC5 GABA+drug was then normalized to the peak current response evoked by 1 mM GABA. Between electrophysiological recordings, oocytes were perfused with buffer for at least 3 min to remove GABA (and drug, if present) and to allow receptors to recover from desensitization.
In these fits, the minimum was constrained to 5% (by definition, for EC5 evoked currents).

[3] = tested on: adrenocortical steroid synthesis; experiment: ACTH-stimulation test in dexamethasone-suppressed rats, plasma adrenocortical steroids by ELISA; details: for inhibition of adrenocortical steroid synthesis (FIG. 10): rats, 3 mg/kg IV dose
Method: Briefly, rats were pretreated with dexamethasone (0.2 mg/kg intravenously) to reduce endogenous ACTH production and minimize baseline adrenocortical steroid concentrations. Two hours later and after receiving a second dexamethasone dose, rats received ACTH1-24 (IV) and the desired dose of either etomidate or dimethoxy-etomidate solubilized in water containing a 1:1 molar ratio of Captisol (Ligand Pharmaceuticals, San Diego, Calif.) or water containing Captisol vehicle alone as a control. Fifteen minutes later, a blood sample was drawn and ACTH-stimulated adrenocortical steroid concentrations in the plasma were determined using enzyme-linked immunosorbent assays and a 96-well plate reader (Molecular Devices, Sunnyvale, Calif.).

11β-hydroxylase [4] = biological target: T3, 11β-hydroxylase (Rattus norvegicus, UniProt P15393); experiment: Displacement of [3H]-etomidate from adrenal membranes; format: binding
T3 construct: tissue BioreclamationlVT; host or cells: membranes (homogenate pellet) from Sprague-Dawley rat adrenal glands
T3 sequence (P15393 25-499): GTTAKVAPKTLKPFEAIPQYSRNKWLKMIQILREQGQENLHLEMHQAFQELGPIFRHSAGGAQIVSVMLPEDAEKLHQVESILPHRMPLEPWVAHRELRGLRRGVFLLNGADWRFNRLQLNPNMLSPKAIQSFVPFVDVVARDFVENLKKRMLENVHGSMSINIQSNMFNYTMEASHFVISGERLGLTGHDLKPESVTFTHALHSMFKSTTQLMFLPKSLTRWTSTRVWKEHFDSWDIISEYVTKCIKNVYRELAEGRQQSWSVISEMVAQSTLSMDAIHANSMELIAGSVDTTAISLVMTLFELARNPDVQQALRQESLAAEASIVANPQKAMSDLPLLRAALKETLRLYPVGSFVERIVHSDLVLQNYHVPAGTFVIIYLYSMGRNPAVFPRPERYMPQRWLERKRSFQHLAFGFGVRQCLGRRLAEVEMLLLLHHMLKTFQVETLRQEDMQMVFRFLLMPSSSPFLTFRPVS
Method: Briefly, 4 adrenal glands were thawed for each preparation, placed on a glass stand, cut into pieces, and then added to ice-cold preparation buffer (HEPES 10 mM, EDTA 1 mM, leupeptin 10 μg/mL, chymostatin 10 μg/mL, pepstatin A 10 μg/mL, aprotinin 2 μg/mL, polymethanesulfonyl fluoride 1 mM and ethanol 10 μg/mL). After homogenization, carboxylesterases were inactivated by incubating with 1 mM diisopropyl fluorophosphate (Sigma-Aldrich) for 60 min. The mixture was then centrifuged and the resulting pellet was washed twice. The final pellet was then re-suspended in buffer by manual homogenization, passed through a 23-gauge needle three times, aliquoted into 1 mL eppendorf tubes, and stored at −80° C. until used. The protein concentration in these samples was quantified using a Pierce BCA Protein Assay Kit (ThermoFisher, Rockford, Ill., USA). All binding experiments were performed in glass vials at room temperature with the final concentration of protein adjusted to 0.07 mg/mL. The reported data were obtained using 3 separate preparations.
After equilibration, the mixture was passed through a pre-soaked (with 0.5% polyethylenimine in water for 2 h) 25 mm GF/B glass fiber filter under suction, the filter was immediately washed twice with 5 mL of assay buffer. After drying under a heat lamp for two hours, each filter was transferred to a scintillation vial. Liquiscint scintillation cocktail (National Diagnostics, Atlanta, Ga., USA) was added to the vial and the radioactivity in the vial quantified using a Packard Tri-Carb liquid scintillation counter (Meriden, Conn., USA). The concentration-response relationships for inhibition of [^3H]-etomidate by etomidate and dimethoxy-etomidate were fit to one and two site models, respectively, using Prism 6 for Mac OS X.

Sprague-Dawley rats [5] = experiment: Myoclonic movements in rats, two-way crossover; format: in vivo, rat; details: 3 mg/kg IV; for occurrence of myoclonus and LoRR: 30-minute observation, n=8
Method: Rats were immediately tested for LoRR and the number of myoclonic events was recorded during each 5-minute epoch for 30 minutes. A myoclonic event was defined as an unproductive (i.e., not associated with LoRR, feeding, or grooming behaviors) movement. Each distinct jerk or tremor constituted a single event. To avoid potentially confounding movements associated with bruxing, boggling, sniffing, and grooming, myoclonus was only considered to occur in the head and jaw when there was the presence of abnormal tongue lolling and jaw movement, or a sharp head movement out of sync with the rats breathing. At the end of the 30-minute observation period, rats were returned to their cages. After a 24-hour recovery period, each rat was crossed over to the other drug group and the experiment repeated.

[6] = 50 mg/kg intravenous dose; cited from earlier work
[7] = 0.3 mg/kg IV, 15 min, vs vehicle control
[8] = 3 mg/kg IV, 15 min, vs vehicle control
[9] = 50 mg/kg IV, vs vehicle control

Structure (SMILES)	ED50 (Sprague-Dawley rats [2])	dose producing loss of righting reflexes in all rats (Sprague-Dawley rats [2])	maximum peak current at high drug concentrations, % of that produced by 1 mM GABA (α1β3γ2L GABAA receptor)	effect on ACTH-stimulated plasma 11-deoxycorticosterone concentration ([3]; 0.3 mg/kg IV)	effect on ACTH-stimulated plasma pregnenolone concentration ([3]; 0.3 mg/kg IV)	effect on ACTH-stimulated plasma progesterone concentration ([3]; 0.3 mg/kg IV)	reduction of ACTH-stimulated plasma corticosterone concentration [3, 7]	effect on ACTH-stimulated plasma 11-deoxycorticosterone concentration ([3]; 3 mg/kg IV)	effect on ACTH-stimulated plasma pregnenolone concentration ([3]; 3 mg/kg IV)	effect on ACTH-stimulated plasma progesterone concentration ([3]; 3 mg/kg IV)	ACTH-stimulated plasma corticosterone concentration ([3]; 3 mg/kg IV, 15 min)	reduction of ACTH-stimulated plasma corticosterone concentration [3, 8]	IC50 (11β-hydroxylase [4])	occurrence of myoclonus and LoRR (Sprague-Dawley rats [5])	inhibition of adrenocortical steroid synthesis (FIG. 10) [3]	further results
CCOC(=O)c1cccn1[C@H](C)c1ccccc1 [carboetomidate, ethyl (R)-1-(1-phenylethyl)-1H-pyrrole-2-carboxylate]	–	–	–	–	–	–	–	–	–	–	–	–	–	–	–	binding affinity to 11β-hydroxylase and adrenocortical inhibitory potency relative to etomidate (11β-hydroxylase [1]): reduced by three-orders of magnitude
CCOC(=O)c1cncn1[C@H](C)c1cc(OC)cc(OC)c1 [dimethoxy-etomidate, Ethyl (R)-1-(1-(3,5-dimethoxyphenyl)ethyl)-1H-imidazole-5-carboxylate]	72 ± 13 mg/kg	100 mg/kg	11%	neither etomidate nor dimethoxy-etomidate altered	neither etomidate nor dimethoxy-etomidate altered	neither etomidate nor dimethoxy-etomidate altered	63%	without significantly affecting	without significantly affecting	without significantly affecting	19±10 ng/m	87%	0.0079 µM	produced no myoclonic events or LoRR in any rat	–	time required for righting reflexes to return (LoRR duration) (Sprague-Dawley rats [2]; 100 mg/kg IV): 2.2 ± 0.7 min; sedative-hypnotic potency compared to etomidate (Sprague-Dawley rats [2]; from LoRR ED50s): two order of magnitude reduction; EC50 (α1β3γ2L GABAA receptor): 210 µM; magnitude of peak current enhancement relative to that produced by the same concentration of etomidate (α1β3γ2L GABAA receptor; EC5 GABA evoked currents): ≤ ⅛; ACTH-stimulated plasma corticosterone concentration ([3]; 0.3 mg/kg IV, 15 min): 56 ± 13 ng/mL; ACTH-stimulated plasma 11-deoxycorticosterone concentration ([3]; 50 mg/kg IV): 24 ± 12 ng/mL; ACTH-stimulated plasma corticosterone concentration ([3]; 50 mg/kg IV): 12 ± 1 ng/mL; effect on ACTH-stimulated plasma pregnenolone concentration ([3]; 50 mg/kg IV): unaffected; effect on ACTH-stimulated plasma progesterone concentration ([3]; 50 mg/kg IV): unaffected; reduction of ACTH-stimulated plasma 11-deoxycorticosterone concentration [3, 9]: 69%; reduction of ACTH-stimulated plasma corticosterone concentration [3, 9]: 95%; IC50 (11β-hydroxylase [4]; read-out: IC50 for displacement of [3H]-etomidate, low affinity site, 2 nM [3H]-etomidate, two site fit): 4.27 µM; high affinity site share of all sites (11β-hydroxylase [4]; two site fit): 55%
CCOC(=O)c1cncn1[C@H](C)c1ccccc1 [etomidate, ethyl (R)-1-(1-phenylethyl)-1H-imidazole-5-carboxylate, reference compound]	0.77 ± 0.17 mg/kg	≥ 1 mg/kg	103%	neither etomidate nor dimethoxy-etomidate altered	neither etomidate nor dimethoxy-etomidate altered	neither etomidate nor dimethoxy-etomidate altered	no significant effect	without significantly affecting	without significantly affecting	without significantly affecting	19±11 ng/m	87%	0.021 µM	produced myoclonus and LORR in all rats	–	time required for righting reflexes to return (LoRR duration) (Sprague-Dawley rats [2]; 3 mg/kg IV, highest etomidate dose studied): 16.3 ± 0.5 min; lethality [6]: lethal; maximum mean (±SEM) number of myoclonic events per rat (Sprague-Dawley rats [5]; 5-10-minute epoch): 13.8±2.2; mean (±SEM) total number of myoclonic events in each rat (Sprague-Dawley rats [5]; 30-minute observation period): 34±2.4
CCOC(=O)c1cncn1[C@H](C)c1ccc2ccccc2c1 [Example 5, ethyl (R)-1-(1-(naphthalen-2-yl)ethyl)-1H-imidazole-5-carboxylate]	–	–	–	–	–	–	–	–	–	–	–	–	–	–	similarly inhibited adrenocortical steroid synthesis	–
CCOC(=O)c1cncn1[C@H](C)c1cccc2ccccc12 [Example 4, ethyl (R)-1-(1-(naphthalen-1-yl)ethyl)-1H-imidazole-5-carboxylate]	–	–	–	–	–	–	–	–	–	–	–	–	–	–	similarly inhibited adrenocortical steroid synthesis	–
